Earlier results as cited in patent publication US12220416B2, “Methylene-tetrahydrofolate reductase isoform-based biomarker and method of use thereof” (RUSH UNIVERSITY MEDICAL CENTER, priority 2017, dated 2025).

Details: RA patients on MTX therapy; ADEs provoke discontinuation of MTX therapy; ref [38]

CN(Cc1cnc2nc(N)nc(N)c2n1)c1ccc(C(=O)N[C@@H](CCC(=O)O)C(=O)O)cc1 [MTX, Methotrexate]
RA patients developing MTX-related adverse drug events (ADEs): approximately 30%
